{"source": "paper PMC12268802", "about": "“The herbicidal natural product phosphonothrixin is an inhibitor of the riboflavin biosynthetic enzyme L‐3,4‐dihydroxy‐2‐butanone‐4‐phosphate synthase” (Pest Management Science, 2025)", "test_in_all_cases": "Herbicidal greenhouse screening, post-emergence", "format_in_all_cases": "in vivo", "details_in_all_cases": "visual, 3 weeks after spraying", "key": {"Oryza sativa (ORYSA)": {"tested_on": "Oryza sativa (ORYSA)", "experimental": "(§1) Seeds of mono‐ and dicotyledonous weed plants were sown in plastic pots of 7 cm diameter filled with a clayey silt soil substrate. The plants were maintained for the preparatory phase of germination and initial growth in the greenhouse under optimum growth conditions. Phosphonothrixin (1) was prepared for application as an emulsion concentrate and diluted together with 0.2% agrotin (a polyfunctional non‐ionic additive) in water corresponding to a spray volume of approximately 600 L ha^−1. At a growth stage of 2 to 4 true leaves the test plants were sprayed and then placed in the greenhouse for 3 weeks under optimum growth conditions. Subsequently, the effect of phosphonothrixin (1) was assessed visually relative to the untreated controls resulting in herbicidal effects (%) ranging from 0% (no effect = untreated control) to 100% (complete control = died‐off )."}, "[1]": {"tested_on": "Lolium multiflorum (LOLMU)", "experimental": "as §1"}, "[2]": {"tested_on": "Triticum aestivum (spring wheat, TRZAS)", "experimental": "as §1"}, "Stellaria media (STEME)": {"tested_on": "Stellaria media (STEME)", "experimental": "as §1"}, "[3]": {"tested_on": "Matricaria inodora (MATIN)", "experimental": "as §1"}, "[4]": {"tested_on": "Polygonum convolvulus (POLCO)", "experimental": "as §1"}, "Avena fatua (AVEFA)": {"tested_on": "Avena fatua (AVEFA)", "experimental": "as §1"}, "[5]": {"tested_on": "Brassica napus (winter rape, BRSNW)", "experimental": "as §1"}}}
{"smiles": "CC(=O)C(O)(CO)CP(=O)(O)O", "note": "(centres unmarked) [phosphonothrixin]", "values": [{"measurement": "herbicidal effect rating, post-emergence", "setting": "Oryza sativa (ORYSA); 1280 g/ha", "result": "1 (‘1’ = 20–39% inhibition)"}, {"measurement": "herbicidal effect rating, post-emergence", "setting": "Oryza sativa (ORYSA); 5120 g/ha", "result": "2 (‘2’ = 40–59% inhibition)"}, {"measurement": "herbicidal effect rating, post-emergence", "setting": "[1]; 80 g/ha", "result": "1 (‘1’ = 20–39% inhibition)"}, {"measurement": "herbicidal effect rating, post-emergence", "setting": "[1]; 320 g/ha", "result": "3 (‘3’ = 60–79% inhibition)"}, {"measurement": "herbicidal effect rating, post-emergence", "setting": "[1]; 1280 g/ha", "result": "4 (‘4’ = 80–90% inhibition)"}, {"measurement": "herbicidal effect rating, post-emergence", "setting": "[1]; 5120 g/ha", "result": "4 (‘4’ = 80–90% inhibition)"}, {"measurement": "herbicidal effect rating, post-emergence", "setting": "[2]; 320 g/ha", "result": "1 (‘1’ = 20–39% inhibition)"}, {"measurement": "herbicidal effect rating, post-emergence", "setting": "[2]; 1280 g/ha", "result": "4 (‘4’ = 80–90% inhibition)"}, {"measurement": "herbicidal effect rating, post-emergence", "setting": "[2]; 5120 g/ha", "result": "4 (‘4’ = 80–90% inhibition)"}, {"measurement": "herbicidal effect rating, post-emergence", "setting": "Stellaria media (STEME); 80 g/ha", "result": "3 (‘3’ = 60–79% inhibition)"}, {"measurement": "herbicidal effect rating, post-emergence", "setting": "Stellaria media (STEME); 320 g/ha", "result": "3 (‘3’ = 60–79% inhibition)"}, {"measurement": "herbicidal effect rating, post-emergence", "setting": "Stellaria media (STEME); 1280 g/ha", "result": "3 (‘3’ = 60–79% inhibition)"}, {"measurement": "herbicidal effect rating, post-emergence", "setting": "Stellaria media (STEME); 5120 g/ha", "result": "4 (‘4’ = 80–90% inhibition)"}, {"measurement": "herbicidal effect rating, post-emergence", "setting": "[3]; 80 g/ha", "result": "2 (‘2’ = 40–59% inhibition)"}, {"measurement": "herbicidal effect rating, post-emergence", "setting": "[3]; 320 g/ha", "result": "3 (‘3’ = 60–79% inhibition)"}, {"measurement": "herbicidal effect rating, post-emergence", "setting": "[3]; 1280 g/ha", "result": "4 (‘4’ = 80–90% inhibition)"}, {"measurement": "herbicidal effect rating, post-emergence", "setting": "[3]; 5120 g/ha", "result": "4 (‘4’ = 80–90% inhibition)"}, {"measurement": "herbicidal effect rating, post-emergence", "setting": "[4]; 80 g/ha", "result": "1 (‘1’ = 20–39% inhibition)"}, {"measurement": "herbicidal effect rating, post-emergence", "setting": "[4]; 320 g/ha", "result": "1 (‘1’ = 20–39% inhibition)"}, {"measurement": "herbicidal effect rating, post-emergence", "setting": "[4]; 1280 g/ha", "result": "1 (‘1’ = 20–39% inhibition)"}, {"measurement": "herbicidal effect rating, post-emergence", "setting": "[4]; 5120 g/ha", "result": "2 (‘2’ = 40–59% inhibition)"}, {"measurement": "herbicidal effect rating, post-emergence", "setting": "Avena fatua (AVEFA); 80 g/ha", "result": "2 (‘2’ = 40–59% inhibition)"}, {"measurement": "herbicidal effect rating, post-emergence", "setting": "Avena fatua (AVEFA); 320 g/ha", "result": "3 (‘3’ = 60–79% inhibition)"}, {"measurement": "herbicidal effect rating, post-emergence", "setting": "Avena fatua (AVEFA); 1280 g/ha", "result": "4 (‘4’ = 80–90% inhibition)"}, {"measurement": "herbicidal effect rating, post-emergence", "setting": "Avena fatua (AVEFA); 5120 g/ha", "result": "4 (‘4’ = 80–90% inhibition)"}, {"measurement": "herbicidal effect rating, post-emergence", "setting": "[5]; 80 g/ha", "result": "2 (‘2’ = 40–59% inhibition)"}, {"measurement": "herbicidal effect rating, post-emergence", "setting": "[5]; 320 g/ha", "result": "3 (‘3’ = 60–79% inhibition)"}, {"measurement": "herbicidal effect rating, post-emergence", "setting": "[5]; 1280 g/ha", "result": "4 (‘4’ = 80–90% inhibition)"}, {"measurement": "herbicidal effect rating, post-emergence", "setting": "[5]; 5120 g/ha", "result": "4 (‘4’ = 80–90% inhibition)"}]}
